We go through three compounds from patent US6458557B1, “Enhancing growth in gram-positive microorganisms using formate supplementation and inactivation of formate-associated transport proteins” (Genencor International, Inc., priority 1997, dated 2002).

Series [1] concerns Bacillus subtilis (BG125). The series is described as follows: Shake flask growth of BG125 in 1% SBG (Klett reading and flask pH). In kind it is cell-based. As to conditions: for growth in shake flask compared to other flasks: 1% SBG pH 7, 37° C., 3 g/l (44 mM) sodium formate and/or 80 mM MOPS (FIG. 5). As for the experimental part: (§1) The Bacillus subtilis strain used was a derivative of I168 called BG125 (hisA1 thr5 trpC2) provided by J. A. Hoch. […] MM294 competent cells (Ausubel et al. 1992, Short Protocols in Molecular Biology. John Wiley and Sons, New York) were used for plasmid construction and propagation. LB broth and agar were used for growing MM294 cells and were supplemented with 50 ug/ml carbenicillin for selection. BG125 was grown on LB agar or in LB liquid medium supplemented with 10 μg/ml of kanamycin for selection.
Trimethaprim was dissolved in 50% ethanol and added to a final concentration of 50 ug/ml where indicated when the growth had reached a Klett reading between 20-30 units. The additions for trimethaprim experiments were added at the following final concentrations: 10 ug/ml glycine, 10 ug/ml methionine, 50 ug/ml thymidine, 20 ug/ml adenosine, and 20 ug/ml guanosine.
(§2) Prior to shake flask experiments BG125 was grown from frozen stocks onto LB agar and grown overnight at 37° C. Cells were removed from the plates to 6 mls of SBG1% in test-tubes and grown at 37° C. for three hours. 0.2 mls of the seed culture was used to inoculate a pre-warmed 300 ml nephlometer flask containing 20 mls of the appropriate media. Flasks were incubated at 37° C. (except where indicated) and 300 rpm in a New Brunswick Scientific Shaker. At the indicated time points, the amount of cell growth was determined by a Klett-Summerson Photoelectric Colorimeter, the pH of the flask was taken using a Corning pH/iometer, and 1.25 mls was removed for further processing. The sample was spun in an eppendorf microfuge and 1 ml of supernatant was removed and mixed with 30 μls of perchloric acid HPLC analysis. The remaining supernatant was saved for glucose analysis. All samples were stored at −70° C. until analysis. Medium pH titrations were performed by the stepwise addition of HCl followed by pH measurement. The bactericidal tests of pH and formate on B. subtilis were carried out by growing BG125 as described above in SBG1% to a density of 5×10^6 cfu/ml. The cells were then adjusted to a concentration of 5×10^4 cfu/ml with buffered SBG1% adjusted to the pH indicated, with and without 50 mM formate. Cultures were then incubated at 37° C. with shaking for 3 hours. Samples were taken at 0, 1 2 and 3 hours, serially diluted and plated to LB at 37° C. for determination of cell viability.

Series [2] concerns Bacillus subtilis (BG125). Kind of series: Bactericidal tests of pH and formate (cell viability by plating). The format is cell-based. As for the experimental part: as §1, §2
Series [3] relates to BG125 with ywcJ (FTAP 2) gene interruption. The series is described as follows: Shake flask growth of BG125 with interruption of ywcJ (FTAP 2). The format is cell-based, Bacillus subtilis. Conditions: 1% SBG, 3 g/l formate, ywcJ (FTAP 2) interruption (FIG. 17). From the text:
(§3) The PCR product was digested with BamHI and PstI and ligated with the 5.3-Kb BamHI-PstI fragment from plasmid pUC/Ts/Kan to construct the yrhG-homologue interruption plasmid pTRANS1. […] The PCR product was digested with BamHI and PstI and ligated with the 5.3-Kb BamHI-PstI fragment from plasmid pUC/Ts/Kan to construct the ywcJ-homologue interruption plasmid. […] The sequencing primers used were the mp19/pUC19 24-mer reverse sequencing primer and the mp19/pUC19 24-mer sequencing primer from New England Biolabs.
(§4) Resulting kanamycin resistant transformants were grown overnight in LB liquid medium containing kanamycin at 45° C. Integrants were plated and then colony purified on LB plates containing kanamycin at 45° C. Isolated colonies were then frozen in LB liquid medium plus 30% glycerol at −70° C. for preservation.
(§5) Prior to shake flask experiments BG125 was grown from frozen stocks onto LB agar and grown overnight at 37° C. Cells were removed from the plates to 6 mls of SBG1% in test-tubes and grown at 37° C. for three hours. 0.2 mls of the seed culture was used to inoculate a pre-warmed 300 ml nephlometer flask containing 20 mls of the appropriate media. Flasks were incubated at 37° C. (except where indicated) and 300 rpm in a New Brunswick Scientific Shaker. […]

Series [4] is described as follows: Medium pH titration by stepwise addition of HCl. In kind it is physicochemical. As to conditions: 1% SBG with 3 g/l sodium formate or 80 mM MOPS, HCl added (FIG. 6). As for the experimental part:
as §2, with “At the indicated time points, the amount of cell growth was determined by a Klett-Summerson Photoelectric Colorimeter, the pH of the flask was taken using a Corning pH/iometer, and 1.25 mls was removed for further processing.” left out

Series [5] deals with BG125 with yrhG (FTAP 1) gene interruption. The series is described as follows: Shake flask growth of BG125 with interruption of yrhG (FTAP 1). The format is cell-based, Bacillus subtilis. Conditions: 1% SBG, 3 g/l formate.
Description: as §3, §4, §5

In series [6] the test system is Bacillus subtilis (BG125). Kind of series: Metabolic by-products (HPLC) and glucose in shake flask supernatants. In kind it is cell-based. Conditions: flasks of FIG. 5: 3 g/l sodium formate, 80 mM MOPS; control about 1.5 g/L. As for the experimental part: as §2, with “At the indicated time points, the amount of cell growth was determined by a Klett-Summerson Photoelectric Colorimeter, the pH of the flask was taken using a Corning pH/iometer, and 1.25 mls was removed for further processing.” left out

`COc1cc(Cc2cnc(N)nc2N)cc(OC)c1OC` [trimethaprim, Trimethaprim, reference compound]: in series [1] (trimethaprim 50 ug/ml added at Klett 20-30, SBG1% (FIG. 11)), the “effect on growth compared to SBG1% alone” value is reported as “inhibitory effect”.
In the case of `O=C[O-].[Na+]` [sodium formate, Sodium formate], in series [2] (pH 3.6, 50 mM formate, also without formate), the loss of viability result is reported as “lost complete viability within two hours”. The “percent of survivors based on the initial titer” value in series [2] (pH 3.6, one hour, 50 mM formate, 1.8 % without formate) is 0.13%. The same compound gave a percent survivors in series [2] (pH 4.0, 3 hours, 50 mM formate, 38 % without formate) of 1.2%. The viability entry in series [2] (pH 4.6, 50 mM formate) is on record as “no decline in viability”; in series [2] (pH 7.0, 50 mM formate), “no decline of viability”. Also, the “growth in shake flask compared to other flasks” value in series [1] is “more total growth”. The “lag in the initial growth rate” value in series [1] (3 g/l sodium formate, 1% SBG) is reported as “slight lag”. For the same compound, the “rate of growth when formate was added” value in series [1] (flask containing trimethaprim and growth enhancing additives (FIG. 11)) is reported as “significantly reduced”. In addition, in series [1] (higher concentrations of sodium formate, up to 21 g/l (FIG. 7)), the “duration of the initial lag period” value was “correlation between increasing concentrations of formate and the duration of the initial lag period”. Also, the “culture density reached after the lag period” value in series [1] (sodium formate up to 21 g/l (FIG. 7), versus control flask) is “reached higher densities than the control flask”. Further, the “effect of formate on growth of interrupted strain” value in series [3] is on record as “toxic effect which caused a decline of growth well below growth of the control strain with out formate”. The “buffering activity in pH titration” value in series [4] is “little buffering activity down to pH 5.0”. In addition, the “decrease in the growth enhancement normally seen with exogenous formate” value in series [5] (yrhG (FTAP1) interruption (FIG. 16)) is on record as ~50%. Besides, in series [5] (yrhG interruption (FIG. 16)), the “growth enhancement effect of formate in interrupted strain” value is listed as “reduced the normal growth enhancement effect of formate by half”.
As to `O=S(=O)(O)CCCN1CCOCC1` [MOPS, reference compound], the “growth in shake flask compared to other flasks” value in series [1] was “near the levels of the formate containing flask”. In addition, in series [6], the acetate level reached is listed as ~2 g/L. Besides, the “buffering activity in pH titration” value in series [4] is reported as “showed buffering activity in the expected range”.
